Source: patent US11840686B2, “Modulation of prekallikrein (PKK) expression” (Ionis Pharmaceuticals, Inc., priority 2013, dated 2023)
Strand notation (5' to 3'): a small letter for the sugar, then the base; units joined by * are phosphorothioate-linked, units joined directly phosphodiester-linked; [ ] holds rarer units or linkages, { } end groups; capitals alone tell only the bases. e = 2'-O-(2-methoxyethyl) (MOE); [5mC] = 5-methylcytosine; d = 2'-deoxy (DNA)

Tested on: human PKK mRNA
Experiment: Antisense inhibition of human PKK mRNA in HepaRG cells, 5,000 nM (Example 2)
Type: cell-based
Procedure, shortened: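 qRT-PCR (RTS3454) read-out, RIBOGREEN-normalized; % inhibition vs untreated cells. HepaRG, 20,000 cells/well, electroporation, 5,000 nM ASO, ~24 h.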

[1] = Table 7, HepaRG cells, electroporation with 5,000 nM antisense oligonucleotide, approx. 24 hours, PKK mRNA by RT-PCR (RTS3454), relative to untreated control cells
[2] = Table 8, HepaRG cells, electroporation with 5,000 nM antisense oligonucleotide, approx. 24 hours, PKK mRNA by RT-PCR (RTS3454), relative to untreated control cells
[3] = human PKK mRNA, HepaRG cells, 5-10-5 motif oligonucleotides targeting SEQ ID NO: 1 and 10
[4] = HepaRG cells, electroporation, 5,000 nM antisense oligonucleotide, approx. 24 hours, primer probe set RTS3454, relative to untreated control cells, Table 11
[5] = human PKK mRNA, HepaRG cells, 5,000 nM antisense oligonucleotide, Table 18
[6] = HepaRG cells, 5,000 nM antisense oligonucleotide, 5-10-5 gapmers, Table 16
[7] = HepaRG cells, 5,000 nM antisense oligonucleotide, human PKK mRNA, Table 18
[8] = HepaRG cells, electroporation, 5,000 nM antisense oligonucleotide, approx. 24 hours, primer probe set RTS3454, relative to untreated control cells, Table 12
[9] = HepaRG cells, 5,000 nM antisense oligonucleotide, 5-10-5 gapmers, Table 17
[10] = Table 9 experiment, HepaRG cells, 20,000 cells per well, electroporation with 5,000 nM antisense oligonucleotide, approx. 24 hours, PKK mRNA by RT-PCR (RTS3454), relative to untreated control cells
[11] = Table 10 experiment, HepaRG cells, 20,000 cells per well, electroporation with 5,000 nM antisense oligonucleotide, approx. 24 hours, PKK mRNA by RT-PCR (RTS3454), relative to untreated control cells
[12] = HepaRG cells, electroporation with 5,000 nM antisense oligonucleotide, approximately 24 hours, PKK mRNA by RT-PCR (RTS3454), relative to untreated control cells, Table 5 experiment
[13] = human PKK mRNA in HepaRG cells, 5-10-5 gapmers, Table 14
[14] = Table 13, human PKK mRNA in HepaRG cells, 5-10-5 gapmers

547402 (eT*eT*eT*eA*eG*dA*dA*dT*dG*dG*d[5mC]*dA*dG*dG*dG*eT*eT*e[5mC]*eA*eG; antisense) [compound 547402]
% inhibition [1]: 59%

547438 (antisense eG*eG*eG*e[5mC]*e[5mC]*dA*d[5mC]*dT*d[5mC]*dT*d[5mC]*d[5mC]*d[5mC]*d[5mC]*dA*eA*eG*eA*eA*eG) [compound 547438]
% inhibition [2]: 82%

546901 (eA*e[5mC]*eT*eG*eT*d[5mC]*d[5mC]*dT*dA*dT*dA*dA*d[5mC]*dT*dA*eT*eA*eA*e[5mC]*eA; antisense) [compound 546901]
% inhibition [3]: 56%

546902 (e[5mC]*eA*e[5mC]*eT*eG*dT*d[5mC]*d[5mC]*dT*dA*dT*dA*dA*d[5mC]*dT*eA*eT*eA*eA*e[5mC]; antisense) [compound 546902]
% inhibition [3]: 71%

547425 (eT*eA*eA*e[5mC]*e[5mC]*dA*dG*dA*dG*d[5mC]*dT*d[5mC]*d[5mC]*d[5mC]*dT*eT*eG*eT*eG*eT; antisense) [compound 547425]
% inhibition [2]: 85%

546374 (antisense e[5mC]*e[5mC]*eA*eG*eG*d[5mC]*dT*d[5mC]*dA*dG*dA*dA*dT*dT*dT*eG*eA*e[5mC]*eT*eT) [compound 546374]
% inhibition [4]: 50%

548773 (antisense e[5mC]*eT*eA*eT*dA*dA*d[5mC]*dA*dG*dT*dA*dT*d[5mC]*eA*e[5mC]*eT*eG) [compound 548773]
% inhibition [5]: 0%

547697 (antisense eT*e[5mC]*eA*e[5mC]*eT*dG*dT*d[5mC]*d[5mC]*dT*dA*dT*dA*dA*d[5mC]*eT*eA*eT*eT*eA) [compound 547697]
% inhibition [6]: 63%

546353 (antisense e[5mC]*eT*e[5mC]*eA*eG*d[5mC]*dG*dA*d[5mC]*dT*dT*dT*dG*dG*dT*eG*eT*eA*eG*eA) [compound 546353]
% inhibition [4]: 55%

547703 (antisense e[5mC]*eA*eA*e[5mC]*eA*dT*d[5mC]*dA*d[5mC]*dT*dG*dT*dA*d[5mC]*d[5mC]*eT*eA*eT*eA*eA) [compound 547703]
% inhibition [6]: 25%

548708 (DNA eT*eA*e[5mC]*dT*dA*dG*dT*dT*dT*d[5mC]*d[5mC]*dT*dA*eT*eA*eA; antisense) [compound 548708]
% inhibition [7]: 0%

548762 (antisense eT*e[5mC]*eT*eA*dA*d[5mC]*dA*dG*dT*dA*dT*d[5mC]*dA*e[5mC]*eT*eG*eT) [compound 548762]
% inhibition [5]: 16%

547352 (antisense e[5mC]*e[5mC]*eG*eG*eT*dA*d[5mC]*dT*d[5mC]*dT*dG*d[5mC]*d[5mC]*dT*dT*eG*eT*eG*eA*eA) [compound 547352]
% inhibition (HepaRG cells, electroporation with 5,000 nM antisense oligonucleotide, approximately 24 hours, PKK mRNA by RT-PCR (RTS3454), relative to untreated control cells, Table 6 experiment): 94%

546687 (eT*eG*eA*eG*eA*d[5mC]*d[5mC]*dT*d[5mC]*d[5mC]*dA*dG*dA*d[5mC]*dT*eA*e[5mC]*eT*eG*eT; antisense) [compound 546687]
% inhibition [8]: 76%

547641 (e[5mC]*eT*eG*eT*e[5mC]*d[5mC]*dT*dA*dT*dA*dA*d[5mC]*dT*dA*dT*eA*eA*e[5mC]*eA*eG; antisense) [compound 547641]
% inhibition [3]: 43%

547738 (eT*eT*eG*eG*eT*dG*dG*dT*dG*dG*dG*dA*dT*dT*dG*eG*eT*eG*e[5mC]*eT; antisense) [compound 547738]
% inhibition [9]: 41%

547389 (e[5mC]*eA*eG*eA*eT*dA*dT*dG*dG*dT*dG*dT*dT*dT*dT*e[5mC]*eT*eT*eG*eA; antisense) [compound 547389]
% inhibition [1]: 61%

546320 (antisense eG*eG*eT*eA*eG*dG*d[5mC]*dA*dT*dA*dT*dT*dG*dG*dT*eT*eT*eT*eT*eG) [compound 546320]
% inhibition [10]: 72%
% inhibition [11]: 69%

546159 (eT*eA*eG*e[5mC]*eA*dA*dA*d[5mC]*dA*d[5mC]*d[5mC]*dT*dT*dG*dG*eG*eT*eG*eG*eA; antisense) [compound 546159]
% inhibition [12]: 76%

547394 (eT*eT*eT*eG*e[5mC]*dA*dG*dG*dT*dT*dA*dA*dA*dA*dG*eG*e[5mC]*eT*eA*eT; antisense) [compound 547394]
% inhibition [1]: 29%

547601 (antisense eG*eT*eA*e[5mC]*e[5mC]*dT*dA*dT*dA*dA*d[5mC]*dT*d[5mC]*dT*dA*eA*e[5mC]*eA*eG*eT) [compound 547601]
% inhibition [13]: 75%

547509 (antisense e[5mC]*e[5mC]*e[5mC]*e[5mC]*e[5mC]*d[5mC]*dA*dG*dG*d[5mC]*dT*d[5mC]*dA*dG*dA*eA*eT*eT*eT*eG) [compound 547509]
% inhibition [4]: 58%

547571 (eA*eA*eA*eT*eG*dA*d[5mC]*dA*d[5mC]*d[5mC]*dA*dA*dA*dA*dT*eT*eG*eA*eG*eT; antisense) [compound 547571]
% inhibition [14]: 14%

546157 (eG*eG*eG*eT*eG*dG*dA*dA*dT*dG*dT*dG*d[5mC]*dA*d[5mC]*e[5mC]*eT*e[5mC]*eA*eT; antisense) [compound 546157]
% inhibition [12]: 85%

547011 (eG*eG*e[5mC]*eA*eG*dG*dA*dT*dT*dG*dG*dT*dG*dG*dT*eG*eG*eA*eA*eT; antisense) [compound 547011]
% inhibition [9]: 22%

546386 (eA*eG*e[5mC]*e[5mC]*eA*dG*dA*d[5mC]*dA*dT*dT*dG*dT*d[5mC]*d[5mC]*eT*e[5mC]*eA*eG*e[5mC]; antisense) [compound 546386]
% inhibition [4]: 78%

547494 (antisense eT*eG*eG*eT*eG*dA*d[5mC]*dT*dG*d[5mC]*dA*dT*d[5mC]*dT*dG*eA*eG*e[5mC]*eT*eT) [compound 547494]
% inhibition [4]: 70%

546368 (antisense eG*eG*eT*eT*eG*dT*dA*dA*dA*dA*dA*dT*dT*dG*d[5mC]*e[5mC]*eT*eA*eG*eA) [compound 546368]
% inhibition [4]: 44%

547624 (antisense eA*eT*eG*eT*e[5mC]*dA*d[5mC]*dT*dG*dT*dA*d[5mC]*d[5mC]*dT*dA*eT*eA*eA*e[5mC]*eT) [compound 547624]
% inhibition [13]: 64%

546345 (antisense e[5mC]*eA*eA*eG*e[5mC]*dA*dT*d[5mC]*dT*dT*dT*dT*d[5mC]*d[5mC]*d[5mC]*e[5mC]*e[5mC]*eT*eT*e[5mC]) [compound 546345]
% inhibition [10]: 86%
% inhibition [11]: 80%

546911 (eG*eT*e[5mC]*e[5mC]*eT*dA*dT*dA*dA*d[5mC]*dT*dA*dT*dA*dA*e[5mC]*eA*eA*eT*eA; antisense) [compound 546911]
% inhibition [3]: 52%

547561 (eA*eA*eG*eG*eG*dA*dA*dA*dT*dT*dA*dG*dA*dG*dG*e[5mC]*eA*eG*eG*e[5mC]; antisense) [compound 547561]
% inhibition [14]: 57%

546370 (antisense eA*e[5mC]*eT*eT*eG*dA*dA*d[5mC]*dT*d[5mC]*dA*dG*dG*dT*dT*eG*eT*eA*eA*eA) [compound 546370]
% inhibition [4]: 34%

547465 (antisense eA*eA*eA*eT*eT*dG*dT*dG*d[5mC]*dT*dT*dG*dT*dG*dT*e[5mC]*eA*e[5mC]*e[5mC]*eT) [compound 547465]
% inhibition [10]: 88%
% inhibition [11]: 85%

546281 (eG*eT*eA*eA*e[5mC]*d[5mC]*dA*dG*dA*dG*d[5mC]*dT*d[5mC]*d[5mC]*d[5mC]*eT*eT*eG*eT*eG; antisense) [compound 546281]
% inhibition [2]: 85%

547498 (antisense e[5mC]*eT*eG*eG*eA*d[5mC]*dT*dG*d[5mC]*dT*dT*d[5mC]*dT*d[5mC]*dA*eT*eG*e[5mC]*eT*eG) [compound 547498]
% inhibition [4]: 44%

547401 (eG*eA*eA*eT*eG*dG*d[5mC]*dA*dG*dG*dG*dT*dT*d[5mC]*dA*eG*eG*eT*eA*eA; antisense) [compound 547401]
% inhibition [1]: 22%

546297 (antisense eT*eA*eT*eA*eG*dA*dT*dG*d[5mC]*dG*d[5mC]*d[5mC]*dA*dA*dA*e[5mC]*eA*eT*e[5mC]*e[5mC]) [compound 546297]
% inhibition [2]: 82%

546397 (eT*eT*eT*eT*eT*dT*dG*dA*dT*d[5mC]*dT*dT*dT*d[5mC]*dA*e[5mC]*e[5mC]*eA*eT*eT; antisense) [compound 546397]
% inhibition [8]: 55%

546700 (eT*eG*eG*eT*eT*d[5mC]*d[5mC]*d[5mC]*dT*dA*dG*d[5mC]*dG*dG*dT*e[5mC]*e[5mC]*eA*eG*eA; antisense) [compound 546700]
% inhibition [8]: 78%

547678 (antisense eT*eA*e[5mC]*e[5mC]*eT*dA*dT*dA*dT*d[5mC]*dA*d[5mC]*dT*dG*dT*eA*eA*e[5mC]*eT*eA) [compound 547678]
% inhibition [6]: 21%

548713 (DNA e[5mC]*eA*e[5mC]*dT*dG*dT*dA*d[5mC]*dT*dA*dG*dT*dT*eT*e[5mC]*e[5mC]; antisense) [compound 548713]
% inhibition [7]: 33%
